# Test system: Jurkat T cells
# Assay: mRNA sequencing of activated Jurkat T cells
# Type: cell-based, human
sequence,measurement,setting,value
PEITVTPPTP [CABIN1-L-1-2],CRIM1 FPKM,P + I,0.333 FPKM
same,CRTAM FPKM,P + I,9.51 FPKM
same,CSF1 FPKM,P + I,2.594 FPKM
same,CSF2 FPKM,P + I,0.314 FPKM
same,CST7 FPKM,P + I,3.175 FPKM
same,CXCL8 FPKM,P + I,3.327 FPKM
same,CXCR3 FPKM,P + I,1.803 FPKM
same,DSTYK FPKM,P + I,3.595 FPKM
same,FBXO34 FPKM,P + I,18.386 FPKM
same,FMNL2 FPKM,P + I,3.019 FPKM
same,FOSL2 FPKM,P + I,2.362 FPKM
same,FOXO1 FPKM,P + I,3.736 FPKM
same,FXYD5 FPKM,P + I,42.856 FPKM
same,FYN FPKM,P + I,15.512 FPKM
same,GFOD1 FPKM,P + I,6.312 FPKM
same,GRK5 FPKM,P + I,8.975 FPKM
same,GTDC1 FPKM,P + I,5.144 FPKM
same,IL2 FPKM,P + I,12.964 FPKM
same,IL3 FPKM,P + I,6.298 FPKM
same,IL21R FPKM,P + I,5.255 FPKM
same,IL21R-AS1 FPKM,P + I,3.991 FPKM
same,IQCJ-SCHIP1 FPKM,P + I,1.234 FPKM
same,IRF4 FPKM,P + I,2.092 FPKM
same,IRF8 FPKM,P + I,1.914 FPKM
same,ISM1 FPKM,P + I,3.737 FPKM
same,JAK2 FPKM,P + I,8.45 FPKM
same,KCNK1 FPKM,P + I,13.139 FPKM
same,KCNK5 FPKM,P + I,4.904 FPKM
same,LAMP3 FPKM,P + I,9.828 FPKM
same,LAX1 FPKM,P + I,7.578 FPKM
same,LIF FPKM,P + I,0.231 FPKM
same,LOC729603 FPKM,P + I,3.329 FPKM
same,LRRC8B FPKM,P + I,4.298 FPKM
same,LTBP4 FPKM,P + I,9.568 FPKM
same,MAP2K3 FPKM,P + I,43.237 FPKM
same,MIR6775 FPKM,P + I,21.57 FPKM
same,MIR6821 FPKM,P + I,25.116 FPKM
same,MYO1D FPKM,P + I,5.995 FPKM
same,NDFIP1 FPKM,P + I,24.432 FPKM
same,NFATC1 FPKM,P + I,3.916 FPKM
same,NPDC1 FPKM,P + I,5.64 FPKM
same,NR4A2 FPKM,P + I,0.356 FPKM
same,NTRK1 FPKM,P + I,1.657 FPKM
same,PAM FPKM,P + I,1.934 FPKM
same,PDGFA FPKM,P + I,8.169 FPKM
same,PELI1 FPKM,P + I,8.465 FPKM
same,PHACTR2 FPKM,P + I,2.791 FPKM
same,PHEX FPKM,P + I,0.786 FPKM
same,PIM3 FPKM,P + I,72.895 FPKM
same,PKIA FPKM,P + I,18.138 FPKM
same,PLK3 FPKM,P + I,7.036 FPKM
same,PLS3 FPKM,P + I,0.37 FPKM
same,POU2AF1 FPKM,P + I,2.971 FPKM
same,PPIF FPKM,P + I,106.533 FPKM
same,PTPN6 FPKM,P + I,20.806 FPKM
same,PTPN22 FPKM,P + I,5.119 FPKM
same,RDH10 FPKM,P + I,5.524 FPKM
same,REL FPKM,P + I,5.699 FPKM
same,RGS16 FPKM,P + I,5.595 FPKM
same,SCHIP1 FPKM,P + I,1.333 FPKM
same,SERPINB2 FPKM,P + I,14.103 FPKM
same,SHC4 FPKM,P + I,0.686 FPKM
same,SLAMF1 FPKM,P + I,0.275 FPKM
same,SLC35E4 FPKM,P + I,1.517 FPKM
same,SORBS1 FPKM,P + I,0.511 FPKM
same,SPRY1 FPKM,P + I,4.901 FPKM
same,STAT5A FPKM,P + I,3.055 FPKM
same,TAGAP FPKM,P + I,8.731 FPKM
same,TBC1D4 FPKM,P + I,13.191 FPKM
same,TBC1D20 FPKM,P + I,18.427 FPKM
same,TDRD9 FPKM,P + I,1.888 FPKM
same,TIAM2 FPKM,P + I,0.301 FPKM
same,TM4SF1 FPKM,P + I,0.907 FPKM
same,TNFRSF4 FPKM,P + I,11.916 FPKM
same,TNFSF9 FPKM,P + I,2.651 FPKM
same,TNFSF14 FPKM,P + I,4.255 FPKM
same,TNS3 FPKM,P + I,1.418 FPKM
same,VAMP1 FPKM,P + I,14.752 FPKM
same,XCL1 FPKM,P + I,1.144 FPKM
same,XCL2 FPKM,P + I,2.074 FPKM
same,ZNF704 FPKM,P + I,0.183 FPKM
same,ZNF827 FPKM,P + I,1.372 FPKM
same,ABCB10 FPKM,P+I,9.751 FPKM
same,ACTG1 FPKM,P+I,799.981 FPKM
same,ADAM19 FPKM,P+I,4.257 FPKM
same,ADD3 FPKM,P+I,9.536 FPKM
same,ADORA2B FPKM,P+I,6.969 FPKM
same,AGO2 FPKM,P+I,14.51 FPKM
same,AIM1 FPKM,P+I,27.486 FPKM
same,APOBEC3A_B FPKM,P+I,14.665 FPKM
same,APOBEC3B FPKM,P+I,59.895 FPKM
same,APOBEC3C FPKM,P+I,14.323 FPKM
same,APOBEC3D FPKM,P+I,8.981 FPKM
same,APOL2 FPKM,P+I,102.003 FPKM
same,APOL6 FPKM,P+I,46.762 FPKM
same,AQP3 FPKM,P+I,52.98 FPKM
same,ARAP2 FPKM,P+I,13.458 FPKM
same,ARC FPKM,P+I,10.186 FPKM
same,ARHGAP23 FPKM,P+I,1.985 FPKM
same,ARHGEF6 FPKM,P+I,27.254 FPKM
same,ASAP1 FPKM,P+I,9.052 FPKM
same,ATG14 FPKM,P+I,11.252 FPKM
same,ATP2B4 FPKM,P+I,10.46 FPKM
same,ATXN1 FPKM,P+I,2.083 FPKM
same,BACH2 FPKM,P+I,36.118 FPKM
same,BAI2 FPKM,P+I,1.079 FPKM
same,BAIAP2-AS1 FPKM,P+I,2.144 FPKM
same,BATF3 FPKM,P+I,45.085 FPKM
same,BHLHE40 FPKM,P+I,9.368 FPKM
same,BTG1 FPKM,P+I,23.454 FPKM
same,C1QL1 FPKM,P+I,0.756 FPKM
same,C1orf233 FPKM,P+I,0.674 FPKM
same,C3 FPKM,P+I,1.329 FPKM
same,C9orf9 FPKM,P+I,6.009 FPKM
same,C10orf54 FPKM,P+I,0.487 FPKM
same,C16orf46 FPKM,P+I,3.705 FPKM
same,CASC15 FPKM,P+I,2.572 FPKM
same,CBX4 FPKM,P+I,11.578 FPKM
same,CBX6 FPKM,P+I,65.604 FPKM
same,CCDC64 FPKM,P+I,11.039 FPKM
same,CCDC71L FPKM,P+I,16.319 FPKM
same,CCL1 FPKM,P+I,0.415 FPKM
same,CCL3L1 FPKM,P+I,0.079 FPKM
same,CCL4 FPKM,P+I,4.062 FPKM
same,CCL4L1 FPKM,P+I,0.328 FPKM
same,CCL4L2 FPKM,P+I,0.328 FPKM
same,CCND2 FPKM,P+I,0.99 FPKM
same,CD1A FPKM,P+I,4.51 FPKM
same,CD1C FPKM,P+I,2.59 FPKM
same,CD1D FPKM,P+I,3.093 FPKM
same,CD27-AS1 FPKM,P+I,4.613 FPKM
same,CD27 FPKM,P+I,3.4 FPKM
same,CD55 FPKM,P+I,12.082 FPKM
same,CD69 FPKM,P+I,121.846 FPKM
same,CD83 FPKM,P+I,41.173 FPKM
same,CDCA7 FPKM,P+I,21.851 FPKM
same,CDT1 FPKM,P+I,11.831 FPKM
same,CFD FPKM,P+I,1.22 FPKM
same,CHI3L2 FPKM,P+I,51.627 FPKM
same,CHRNA9 FPKM,P+I,2.572 FPKM
same,CLEC2B FPKM,P+I,54.119 FPKM
same,CNR2 FPKM,P+I,0.552 FPKM
same,CORO2A FPKM,P+I,1.623 FPKM
same,CRIM1 FPKM,P+I,0.333 FPKM
same,CRTAM FPKM,P+I,9.51 FPKM
same,CSRNP1 FPKM,P+I,23.093 FPKM
same,CST7 FPKM,P+I,3.175 FPKM
same,CTDSPL FPKM,P+I,1.836 FPKM
same,CTTN FPKM,P+I,15.629 FPKM
same,CXCL3 FPKM,P+I,7.007 FPKM
same,CXCL9 FPKM,P+I,7.221 FPKM
same,CXCL10 FPKM,P+I,6.288 FPKM
same,CXCR3 FPKM,P+I,1.803 FPKM
same,CYB5RL FPKM,P+I,1.449 FPKM
same,DFNA5 FPKM,P+I,9.395 FPKM
same,DHFR FPKM,P+I,6.668 FPKM
same,DNAJB11 FPKM,P+I,109.967 FPKM
same,DNAJC1 FPKM,P+I,13.844 FPKM
same,DNPEP FPKM,P+I,43.482 FPKM
same,DOK2 FPKM,P+I,27.542 FPKM
same,DPY19L2P2 FPKM,P+I,2.643 FPKM
same,DPYSL2 FPKM,P+I,9.177 FPKM
same,DTX3L FPKM,P+I,48.261 FPKM
same,DUSP2 FPKM,P+I,97.06 FPKM
same,DUSP5 FPKM,P+I,157.077 FPKM
same,E2F1 FPKM,P+I,8.062 FPKM
same,E2F2 FPKM,P+I,3.419 FPKM
same,EIF2AK3 FPKM,P+I,9.816 FPKM
same,ENC1 FPKM,P+I,9.268 FPKM
same,ENHO FPKM,P+I,1.223 FPKM
same,ENPP1 FPKM,P+I,51.27 FPKM
same,EPAS1 FPKM,P+I,4.197 FPKM
same,EPHA3 FPKM,P+I,2.536 FPKM
same,ERO1LB FPKM,P+I,4.345 FPKM
same,ETV5 FPKM,P+I,13.264 FPKM
same,EVI2A FPKM,P+I,10.047 FPKM
same,FAM46C FPKM,P+I,5.693 FPKM
same,FAM111B FPKM,P+I,4.22 FPKM
same,FASLG FPKM,P+I,1.715 FPKM
same,FBXO34 FPKM,P+I,18.386 FPKM
same,FMNL2 FPKM,P+I,3.019 FPKM
same,FOS FPKM,P+I,4.53 FPKM
same,FOXO1 FPKM,P+I,3.736 FPKM
same,FST FPKM,P+I,6.872 FPKM
same,FURIN FPKM,P+I,29.008 FPKM
same,FYB FPKM,P+I,10.258 FPKM
same,GAMT FPKM,P+I,11.98 FPKM
same,GBP1 FPKM,P+I,87.487 FPKM
same,GBP2 FPKM,P+I,38.881 FPKM
same,GBP3 FPKM,P+I,68.757 FPKM
same,GBP4 FPKM,P+I,9.209 FPKM
same,GBP5 FPKM,P+I,262.945 FPKM
same,GDPD5 FPKM,P+I,39.139 FPKM
same,GEM FPKM,P+I,2.963 FPKM
same,GINS2 FPKM,P+I,16.516 FPKM
same,GLIPR2 FPKM,P+I,11.773 FPKM
same,GNAQ FPKM,P+I,17.078 FPKM
same,GNG2 FPKM,P+I,17.754 FPKM
same,GPR3 FPKM,P+I,9.964 FPKM
